Assay: Relative potency was evaluated for its ability to mobilize intracellular calcium in MDA MB231 cells.
Format: functional, cell-based
Conditions: Homo sapiens, MDA-MB-231

Compared with CCCCCCCC/C=C\CCCCCCCC(=O)OCC(O)COP(=O)(O)O (single isomer, unassigned) [LYSOPHOSPHATIDIC ACID], CCCCCC/C=C\CCCCCCCC(=O)Nc1cccc(OP(=O)(O)O)c1 is 92-fold higher in EC50: 0.005 µM for the first, 0.46 µM for the second. The first is the more potent here.

Going from CCCCCC/C=C\CCCCCCCC(=O)Nc1ccc(OP(=O)(O)O)cc1 to CCCCCCCCCCCCCCCC(=O)Nc1cccc(OP(=O)(O)O)c1, the EC50 falls from 1.83 µM to 0.46 µM (4-fold).

CCCCCCCCCCCCCCCC(=O)Oc1cccc(OP(=O)(O)O)c1 gave an EC50 of 0.31 µM.

Assay: Relative potency was evaluated for its ability to mobilize intracellular calcium in MDA MB231 cells.*did not reach a maximal response at the highest concentration used
Format: functional, cell-based
Conditions: Homo sapiens, MDA-MB-231

Going from CCCCCC/C=C\CCCCCCCC(=O)Oc1cccc(OP(=O)(O)O)c1 to CCCCCCCC/C=C\CCCCCCCC(=O)NCCOP(=O)(O)O, the EC50 falls from 0.85 µM to 0.003 µM (280-fold).

First: CCCCCCCCCCCC(=O)Oc1ccc(C(=O)c2ccc(OP(=O)(O)O)cc2)cc1
Second: CCCCCCCCCCCCCC(=O)Oc1ccc(C(=O)c2ccc(OP(=O)(O)O)cc2)cc1
The EC50 of the first is 2.4-fold higher: 4.71 µM for the first, 1.99 µM for the second.

CCCCCCCCCC(=O)Oc1ccc(C(=O)c2ccc(OP(=O)(O)O)cc2)cc1 and CCCCCCCC(=O)Oc1ccc(C(=O)c2ccc(OP(=O)(O)O)cc2)cc1 cannot be ordered by EC50: greater than 500 µM for the first, greater than 500 µM for the second.

With CCCCCCCCCCCCCCCC(=O)Nc1ccc(OP(=O)(O)O)cc1 the EC50 was 1.56 µM.

Source: ChEMBL document CHEMBL1132615, “Structure--activity relationships of lysophosphatidic acid: conformationally restricted backbone mimetics” (J Med Chem, 1999)
